Test results published in US9329192B2, “Polymer-coupled peptidases” (SENOVA GESELLSCHAFT FUR BIOWISSENSCHAFT UND TECHNIK MBH, priority 2010, dated 2016).

Test system: heparin in combination with antithrombin of plasma
Assay: Influence of heparin in plasma on amidolytic activity, chromogenic thrombin assay
Type: biochemical
Conditions: increasing concentrations of heparin in citrated plasma, substrate H-D-Chg-Ala-Arg-pNA
Protocol: The influence of heparin (Sigma, H-3393) on the amidolytic activity of PEG 5 kD-thrombin conjugate in plasma was compared with its influence on the amidolytic activity of unmodified thrombin using the chromogenic assay for quantitative determination of direct thrombin inhibitors (Example 5): 15 μl of a plasma sample (citrated plasma) were added to 50 μl chromogenic substrate (H-D-Chg-Ala-Arg-pNA, JenAffin GmbH, 3 mM in 0.05M Tris/HCl, 0.1M NaCl, pH 8.0 at 37° C.). Chromogenic reaction was started by addition of 100 μl PEG 5 kD-thrombin conjugate or thrombin, respectively. Increase in optical density (release of p-nitroaniline by cleavage of the chromogenic substrate) was recorded at 405 nm using the measurement device TC4+ (TECO GmbH).

PEG 5 kD-thrombin conjugate: bovine factor IIa (thrombin) coupled with methoxy polyethylene glycol (PEG)-5,000 p-nitrophenyl carbonate
influence of heparin on amidolytic activity: does not influence amidolytic activity

thrombin: bovine factor IIa (thrombin, EC 3.4.21.5, Kordia), unmodified
influence of heparin on amidolytic activity: inhibit amidolytic activity
